Assay results reported in ChEMBL document CHEMBL1921689, “Synthesis and biological profile of new 1,2,3,4-tetrahydroisoquinolines as selective carbonic anhydrase inhibitors” (Bioorg Med Chem, 2011).

Target: Carbonic anhydrase 9 (Homo sapiens, UniProt Q16790)
Experiment: Inhibition of human CA9 catalytic domain preincubated for 15 mins by stopped flow CO2 hydration assay

| SMILES | Ki [µM] |
| --- | --- |
| COc1ccc2c(c1)CCN(S(N)(=O)=O)C2c1ccccc1 (racemic) | 0.078 |
| COc1ccc2c(c1)CCN(S(N)(=O)=O)C2c1ccc(Br)cc1 (racemic) | 0.0607 |
| COc1ccc2c(c1)CCN(S(N)(=O)=O)C2c1ccc(C#N)cc1 (racemic) | 0.007 |
| COc1ccc2c(c1)CCN(S(N)(=O)=O)C2c1ccc(F)cc1 (racemic) | 0.031 |
| COc1ccc2c(c1)CCN(S(N)(=O)=O)C2c1ccc(C)cc1 (racemic) | 0.0075 |
| COc1ccc2c(c1)CCN(S(N)(=O)=O)C2c1cccc([N+](=O)[O-])c1 (racemic) | 0.016 |
| COc1ccc2c(c1)CCN(S(N)(=O)=O)C2c1ccc([N+](=O)[O-])cc1 (racemic) | 0.005 |
| COc1ccc2c(c1)CCN(S(N)(=O)=O)C2c1cccc(N)c1 (racemic) | 0.018 |
| COc1ccc2c(c1)CCN(S(N)(=O)=O)C2c1ccc(N)cc1 (racemic) | 0.012 |
